From patent publication US5530095A, “Peptides of melanin concentrating hormone precursor” (The Salk Institute for Biological Studies, priority 1995, dated 1996)
Bridge positions count the residues as written; N and C are the ends. Ends that are not written are not given here. Peptide text beside a SMILES is read from it.

What was measured:
[1] = system: rabbit anti-salmon MCH antibody (Antibody PBL #171); test: Radioimmunoassay based on rabbit anti-salmon MCH antibody PBL #171 with 125I-salmon MCH tracer; format: binding; settings: for cross-reactivity in the salmon MCH radioimmunoassay: Antibody PBL #171
Protocol: Salmon MCH, having the formula [drawing 7] is synthesized and purified as described in Example I. It is then conjugated to human alpha-globulins (U.S. Biochemicals, Frac IV) via glutaraldehyde by a reaction well known in the art. The salmon MCH-human alpha-globulins conjugate is diluted with physiological saline (0.9%s/v) to a final concentration of 1 mg total protein per milliliter Freund's Complete Adjuvant Modified M. butyricum (Calbiochem) is emulsified with an equal volume of saline containing either 1 mg conjugate/ml (for initial injections) or 0.5 mg conjugate/ml (for boosters). For each immunization, the rabbits receive a total of 1 ml emulsion in 20-30 intradermal sites; they are injected every 2 weeks and bled through an ear vein 7 days after each booster. Blood is allowed to clot, and serum is separated from cells by centrifugation. The antiserum from each bleeding is characterized with respect to titer and affinity. Some of this antiserum is labelled PBL #171.
Salmon MCH (1 μg) is radiolabelled using 1 mCurie Na^125 I (New England Nuclear, NEZ 033L) and 1 μg Chloramine T in a total volume of 40 μl of 1.25M sodium phosphate buffer, pH 7.5. Reaction is allowed to proceed for 30-45 seconds and then immediately quenched by the addition of 10 mg bovine serum albumin (BSA). ^125 I-salmon MCH is then purified by adsorption and elution from a BondElut C18 cartridge (Analytichem International). The eluant from the C18 cartridge is reduced to about 200 μl using a Savant Speed-Vac and then further purified by HPLC using a Vydac C18 column, 0.46×25 cm, 5 μm, 300 Å pore size. Buffer A is 0.1% trifluoroacetic acid (TFA); buffer B is 60% acetonitrile in 0.1% TFA. ^125 I-salmon MCH is loaded at 35% B at a flow rate of 1.5 ml/min, and a gradient is then run to 70% B in 40 minutes. Peak tubes of radioactivity are made 0.5% final in BSA. Several peaks of radioactivity are reproducibly eluted, and the first major zone of radioactivity is routinely used for the radioimmunoassay.
Throughout the purification, fractions are monitored using an RIA based upon this rabbit anti-salmon MCH antibody. Aliquots for assay are transferred into glass tubes containing BSA (10 μl of 10 mg/ml) and dried in a Savant Speed Vac. Fractions are resuspended in RIA assay buffer and pH checked and adjusted if necessary with NaOH. The radioimmunoassay is carried out using chilled reagents and with tubes partially immersed in ice water. On day one, 100 μl of buffer with Antibody PBL #171 1/24,000 dilution (1/120,000 final dilution) is added to glass tubes containing standard or test samples or buffer only in a volume of 300 μl. All treatments are tested in duplicate. Buffer is 0.1M sodium chloride, 0.05M sodium phosphate, 0.025M ethylenediaminetetraacetic acid (EDTA), 0.1% sodium azide, pH 7.5 (SPEA buffer) with 0.1% BSA. Standards ranging from 0.5 to 2000 pg of synthetic salmon MCH are used. Samples are tested at 2-5 dose levels. After these additions, tubes are vortexed and incubated at 4 ° C. for 24 hours. On day two, 20,000 cpm of ^125 -salmon MCH with 0.5% normal rabbit serum diluted in SPEA buffer +0.1% BSA is added in a volume of 100 μl to all tubes. The tubes are vortexed and returned to the cold for approximately 24 hours. On day three, tracer bound to antibody is precipitated with sheep anti-rabbit gamma globulins (100 μl, 1/40 dilution) and 0.5 ml of 10% (w/v) polyethylene glycol (SIGMA, MW=6,000 to 8,000). Tubes are vortexed and incubated 15 to 30 minutes at room temperature. Tubes are washed with 1 ml of SPEA buffer and centrifuged at 4° C. for 30-45 minutes at 2000× g. Supernatants are decanted, and pellets are counted in a gamma counter. Results are calculated using a standard logit/log radioimmunoassay data processing program NICHD RRB, NIH.

[2] = system: rat pituitary halves (secretion of ACTH); test: In vitro assay using rat pituitary halves to monitor secretion of ACTH; format: cell-based
Protocol: In vitro assays are performed with the mammalian MCH and the synthetic salmon MCH peptides, using rat pituitary halves to monitor for the secretion of ACTH. Assays of this type are described in more detail in Proc. Natl. Acad. Sci., 85, 5556-5560 (1988). […] As a result, it is believed that mammalian MCH should be useful as a natural, peptide regulator of the pituitary-adrenal axis. It is likewise believed that mammalian MCH peptides will be useful for clinical application in the treatment of pigment disorders as well as in the diagnosis and therapy of melanoma. It is also believed that they will be effective in the treatment of certain forms of dementia and may have uses in connection with nerve damage situations.

[3] = Biological potency in mammalian assays
[4] = system: fish melanophores; settings: cited from earlier work
[5] = system: melanosomes in amphibians; settings: cited from earlier work
[6] = system: antibodies against human GRF; test: Cross-reaction with antibodies against human GRF; format: binding; settings: suggested by homology of human GRF 30-37 with NGE 12-19
From the text: The sequences of the NGE's correspond to the sequences of amino acids 110-128 of the MCH precursors (see Tables 1 and 2, below). […] It is thought that NGE's, like NEI, have a biological function in vivo.

Row | Compound | cross-reactivity in the salmon MCH radioimmunoassay [1] | also measured
1 | human GRF(1-40)-OH: human growth hormone releasing factor (1-40), free acid (YADAIFTNSYRKVLGQLSARKLLQDIMSRQQGESNQERGA-OH; UniProt P01286 32-71, looked up, fragment) | no cross-reactivity | 
2 | CSCC[C@@H]1NC(=O)[C@@H](NC(=O)[C@H](CCCNC(=N)N)NC(=O)[C@H](CCSC)NC(=O)[C@@H](NC(=O)[C@@H](N)CC(=O)O)[C@@H](C)O)CSSC[C@@H](C(=O)N[C@@H](Cc2c[nH]c3ccccc23)C(=O)N[C@@H](CCC(=O)O)C(=O)N[C@H](C(=O)O)C(C)C)NC(=O)[C@@H]2CCCN2C(=O)[C@H](CCCNC(=N)N)NC(=O)[C@H](Cc2ccc(O)cc2)NC(=O)[C@H](C(C)C)NC(=O)[C@H](CCCNC(=N)N)NC(=O)CNC(=O)[C@H](C(C)C)NC1=O [salmon MCH] (H-DTMRCMVGRVYRPCWEV-OH; disulfide 5-14) |  | EC50 in the radioimmunoassay ([1]; Antibody PBL #171 1/120,000 final dilution, 125I-salmon MCH tracer, n=10): 18.5 ± 3.2 pg; modulation of ACTH secretion/production [2]: substantially no effect on the secretion of ACTH; biological potency in mammalian assays [3]: extremely little biological potency; melanosome aggregation [4]: induces melanosome aggregation; effect on melanosomes in amphibians [5]: causing dispersal of melanosomes
3 | rat ACTH: rat ACTH peptide hormone (SYSMEHFRWGKPVGKKRRPVKVYPNVAENESAEAFPLEF; Corticotropin; UniProt P01194 124-162, looked up) | no cross-reactivity | 
4 | Gly-XNGE -Phe-Pro-Ala-Glu-Asn-Gly-Val-Gln-Asn-Thr-Glu-Ser-Thr-Gln-Glu |  | cross-reaction of anti-GRF antibodies [6]: cross-react
5 | SS-14: SS-14 peptide tested for RIA cross-reactivity (AGCKNFFWKTFTSC; ends and bridges not checked; cysteine pairing not given here; UniProt P61278 103-116, looked up) | no cross-reactivity | 
6 | CSCC[C@@H]1NC(=O)[C@@H](NC(=O)[C@H](CCCNC(=N)N)NC(=O)[C@H](CC(C)C)NC(=O)[C@H](CCSC)NC(=O)[C@H](CC(=O)O)NC(=O)[C@H](Cc2ccccc2)NC(=O)[C@@H](N)CC(=O)O)CSSC[C@@H](C(=O)N[C@@H](Cc2c[nH]c3ccccc23)C(=O)N[C@@H](CCC(N)=O)C(=O)N[C@H](C(=O)O)C(C)C)NC(=O)[C@@H]2CCCN2C(=O)[C@H](CCCNC(=N)N)NC(=O)[C@H](Cc2ccc(O)cc2)NC(=O)[C@H](C(C)C)NC(=O)[C@H](CCCNC(=N)N)NC(=O)CNC(=O)[C@H](CC(C)C)NC1=O [mammalian MCH] |  | displacement in radioimmunoassays ([1]; radioimmunoassays also run with synthetic salmon MCH): shows displacement; modulation of ACTH secretion/production [2]: very potent modulators of ACTH production; biological potency in mammalian assays [3]: more potent reaction than the alpha-MSH and beta-MSH antagonists
7 | β-MSH | no cross-reactivity | 
8 | β-endorphin (YGGFMTSEKSQTPLVTLFKNAIIKNAYKKGE; Beta-endorphin; UniProt P01189 237-267, looked up) | no cross-reactivity | 
9 | CC[C@H](C)[C@@H]1NC(=O)[C@H](Cc2ccc(O)cc2)NC(=O)[C@@H](N)CSSC[C@@H](C(=O)N2CCC[C@H]2C(=O)N[C@@H](CC(C)C)C(=O)NCC(N)=O)NC(=O)[C@H](CC(N)=O)NC(=O)[C@H](CCC(N)=O)NC1=O [oxytocin] | no cross-reactivity | 
10 | rat CRF: rat corticotropin-releasing factor (SEEPPISLDLTFHLLREVLEMARAEQLAQQAHSNRKLMEII; ends and bridges not checked; UniProt P01143 145-185, looked up) | no cross-reactivity | 
11 | GnRH: GnRH peptide hormone (QHWSYGLRPG; ends and bridges not checked; UniProt P01148 24-33, looked up) | no cross-reactivity | 
12 | rat GRF: rat growth hormone releasing factor (HADAIFTSSYRRILGQLYARKLLHEIMNRQQGERNQEQRSRFN; Somatoliberin; UniProt P09916 31-73, looked up) | no cross-reactivity | 
13 | SS-28: SS-28 peptide tested for RIA cross-reactivity (SANSNPAMAPRERKAGCKNFFWKTFTSC; ends and bridges not checked; cysteine pairing not given here; UniProt P61278 89-116, looked up) | no cross-reactivity | 
14 | NC(=O)CC[C@@H]1NC(=O)[C@H](Cc2ccccc2)NC(=O)[C@H](Cc2ccc(O)cc2)NC(=O)[C@@H](N)CSSC[C@@H](C(=O)N2CCC[C@H]2C(=O)N[C@@H](CCCN=C(N)N)C(=O)NCC(N)=O)NC(=O)[C@H](CC(N)=O)NC1=O [arginine vasopressin] | no cross-reactivity | 
